What all share (experiment): NCI-60 cell line screen, 48 h
In assay [1] the test system is OVCAR-5 ovarian.
Assay [2] concerns K-562 leukemia.
Assay [3] relates to KM12 colon.
Assay [4] deals with MALME-3M melanoma.
Assay [5] has as its system HOP-62 NSCLC.
Assay [6] deals with OVCAR-4 ovarian.
Assay [7] concerns RPMI-8226 leukemia.
In assay [8] the test system is ACHN renal.
Assay [9] has as its system UACC-62 melanoma.
Assay [10] deals with LOX IMVI melanoma.

Where “and” joins values, the source holds several entries; their conditions need not be identical. Equal entries are not always repeated.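 Each compound was tested at five concentrations against cells in 96-well plates for 48 hours. GI50 is the concentration that inhibits growth by half. TGI denotes the concentration required for complete inhibition of growth.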

As to `NC(=O)c1ccc2nc(-c3ccc(C4(N)CCC4)cc3)c(-c3ccccc3)n2n1`, the GI50 in assay [1] was 12.5 µM; in assay [2], 13.7 µM; in assay [3], 10.5 µM; in assay [4], 1.19 µM; in assay [5], 11.6 µM; in assay [6] it was 16 µM. In addition, the GI50 in assay [7] was 10.9 µM; in [8], 5.97 µM; in assay [9] it was 10.3 µM; in assay [10], 10.5 µM. Also, the TGI in [1] was found to be 47 µM; in [2], 36.9 µM; in assay [3] it was 25.3 µM; in assay [4], 19.7 µM; in assay [5], 27.7 µM; in assay [6] it was 44.6 µM. For the same compound, the TGI in assay [7] is 30.9 µM; in [8], 20.8 µM; in [9] it was 22.7 µM; in [10] it was 24 µM.

Turning to `C[n+]1c2cc(N)ccc2cc2ccc(N)cc21` (tested in a mixture with another compound), the GI50 in assay [1] was 0.405 µM; in assay [2], 0.2 µM; in assay [3], 0.21 µM; in [4], 0.258 µM; in assay [5], 0.63 µM; in assay [6] it was 0.646 µM. In addition, the GI50 in assay [7] is 0.345 µM; in [8], 0.304 µM; in assay [9] it was 0.435 µM; in assay [10], 0.307 µM. Besides, the TGI turned out to be 11.1 µM in assay [1]; 1.25 µM in assay [2]; 1.37 µM in [3]; 1.04 µM in [4]; 5.37 µM in assay [5]; 2.68 µM in [6]. Further, the TGI in assay [7] was determined as 1.68 µM; in assay [8], 3.59 µM; in assay [9] it was 1.94 µM; in [10] it was 1.46 µM.

`CCc1nc(-n2c(CC)nc3ccccc3c2=O)nc(N)c1-c1ccc(Cl)cc1`: the GI50 is 30.9 µM in assay [1]; 17.6 µM in assay [2]; 38.5 µM in assay [3]; over 80.1 µM in assay [4]; 44.8 µM in assay [5]; over 100 µM in [6]. The GI50 in assay [7] was 1.24 µM; in assay [8] it was over 27.1 µM; in assay [9], 5.46 µM; in [10] it was 6.91 µM. The TGI in assay [1], in assay [2], in [3], in assay [4], in assay [5] and in [6] was over 100 µM in each case. Besides, the TGI in assay [7] is over 32 µM; in assay [8], over 100 µM; in assay [9], over 100 µM; in [10] it was over 100 µM.

Consider `COc1ccc(S(=O)(=O)NC2=NCCN2C(=S)SN2CCn3c2nsc3=S)cc1OC`, for which the GI50 in assay [1] was 20.8 µM; in assay [2], 27.4 µM; in [3] it was 21.2 µM; in [4], 16.7 µM; in assay [5] it was 27.5 µM; in [6], 16 µM. In addition, the GI50 in assay [7] is 7.93 µM; in assay [8], 28.9 µM; in [9], 16.3 µM; in assay [10] it was 16.8 µM. Further, the TGI was 40.4 µM in [1]; over 100 µM in assay [2]; 52 µM in assay [3]; 43.7 µM in assay [4]; 78.3 µM in [5]; 34.8 µM in [6]. The TGI in assay [7] was 27.5 µM; in [8] it was over 100 µM; in assay [9] it was 38 µM; in [10] it was 37.8 µM.

On to `COc1cc(/C=C/C(=O)NC[C@]2(O)CCC3C4CCc5cc(O)ccc5C4CCC32C)ccc1O` (stereo partly drawn), for which the GI50 in assay [1] is 56.9 µM; in assay [2] it was 3.74 µM; in assay [3], 5.68 µM; in assay [4], 3.5 µM; in assay [5], 26.7 µM; in assay [6], 7.49 µM. The GI50 in assay [7] was 3.16 µM; in assay [8], 9.05 µM; in [9] it was 16.8 µM; in assay [10], 8.36 µM. Further, the TGI in [1] was over 100 µM; in assay [2], 28.4 µM; in [3], 36 µM; in assay [4], 42.3 µM; in [5], over 100 µM; in assay [6], over 100 µM. For the same compound, the TGI in [7] is 16.7 µM; in assay [8], over 100 µM; in assay [9] it was over 100 µM; in assay [10] it was over 100 µM.

As to `Cc1c2cnccc2c(C)c2c1c1cc(C(=O)O)ccc1n2C`, the GI50 was 1.91 µM in assay [1]; 1.28 µM in assay [2]; 1.04 µM in assay [3]; 0.942 µM in [4]; 0.642 µM in assay [5]; 1.43 µM in [6]. Also, the GI50 in [7] is 1.26 µM; in assay [8], 0.464 µM; in [9], 0.546 µM; in assay [10] it was 0.579 µM. The TGI was 9.52 µM in [1]; over 100 µM in [2]; 6.92 µM in [3]; 2.97 µM in [4]; 7.52 µM in assay [5]; 6.59 µM in assay [6]. The TGI stood at 5.66 µM in [7], 5.27 µM in [8], 2.12 µM in [9] and 4.18 µM in [10].

On to `COc1cc(OC)cc(-c2ccc(-c3ccc(C(=N)N)s3)s2)c1`, for which the GI50 in assay [1] is 1.5 µM; in assay [2], 0.346 µM and 0.178 µM; in assay [3], 0.517 µM and 0.302 µM; in assay [4], 1.25 µM; in [5], 1.81 µM; in assay [6], 1.44 µM. Also, the GI50 is 0.286 µM and 0.218 µM in [7]; 1.45 µM in assay [8]; 1.75 µM in [9]; 0.221 µM in assay [10]. Besides, the TGI in assay [1] was 3.19 µM; in assay [2], 1.11 µM and 0.441 µM; in [3], 2.04 µM and 1.13 µM; in assay [4], 3.28 µM; in assay [5], 3.47 µM; in [6], 3.62 µM. Also, the TGI in assay [7] is 0.866 µM and 0.483 µM; in [8] it was 3.25 µM; in [9], 3.53 µM; in assay [10], 0.495 µM.

For `Nc1ccc(-c2ccc(Nc3cc(S(=O)(=O)O)c(N)c4c3C(=O)c3ccccc3C4=O)cc2)c(S(=O)(=O)O)c1`, the TGI in assay [1], in assay [2], in assay [3], in assay [4], in [5] and in assay [6] was over 100 µM throughout. The TGI in assay [7], in assay [8], in [9] and in assay [10] was over 100 µM in each case.

As to `Cc1cc(Nc2cc(CN3CCOCC3)c3nc(C)c(Cc4ccc(Cl)cc4F)n3n2)n[nH]1`, the GI50 is 1.8 µM in assay [1]; 0.473 µM in assay [2]; 0.0481 µM in [3]; 4.35 µM in assay [4]; 1.84 µM in assay [5]; 2.85 µM in assay [6]. The GI50 in assay [7] is 1.88 µM; in [8] it was 1.63 µM; in assay [9], 2.36 µM; in assay [10] it was 1.11 µM. Also, the TGI in [1] is 7.03 µM; in assay [2], 13.6 µM; in assay [3] it was 5.6 µM; in assay [4] it was 20.6 µM; in assay [5] it was 9.49 µM; in assay [6], 16.7 µM. For the same compound, the TGI in assay [7] worked out at 14.8 µM; in assay [8], 10.9 µM; in assay [9], 11.3 µM; in assay [10], 2.69 µM.

In the case of `C/C(=C1/N=C(c2ccccc2)OC1=O)c1ccc(C)cc1`, the TGI in assay [1], in [2], in [3], in [4], in [5] and in assay [6] was over 100 µM in each case. For the same compound, the TGI in assay [7], in assay [8], in assay [9] and in assay [10] was over 100 µM in each case.

As for `S=c1nc[nH]c2nc[nH]c12`, the GI50 in [1] is 5.75 µM and > 32.3 µM; in assay [2], 3.34 µM; in assay [4], 5.28 µM; in [5], 2.09 µM and 8 µM; in assay [6] it was 70.8 µM and 61.2 µM; in assay [7], 1.18 µM and 10.3 µM. The GI50 in [8] was 4.88 µM; in assay [10] it was 0.321 µM and 3.01 µM. The TGI was > 100 µM and 651 µM and > 750 µM in assay [1]; 446 µM and 251 µM in assay [2]; > 100 µM and 716 µM and > 707 µM in [3]; > 100 µM and 298 µM and > 750 µM in assay [4]; > 100 µM and 526 µM and > 750 µM in assay [5]; > 100 µM and 618 µM and > 750 µM in assay [6]. For the same compound, the TGI in assay [7] is > 100 µM and 489 µM and 171 µM; in assay [8], over 737 µM; in assay [9], > 100 µM and 512 µM and > 750 µM; in assay [10], 41.4 µM and 111 µM and 192 µM.

On to `COc1ccc2c(O)c(/C=C3\N=Nc4ncccc43)oc2c1C[C@H]1CCNC[C@H]1F`, for which the GI50 was 0.479 µM in assay [1]; 0.436 µM in assay [2]; 0.39 µM in assay [3]; 1.61 µM in assay [4]; 0.409 µM in assay [5]; 0.566 µM in assay [6]. Further, the GI50 was 0.286 µM in [7], 0.27 µM in assay [8], 0.476 µM in assay [9] and 0.304 µM in assay [10]. For the same compound, the TGI in assay [1] stood at 24.6 µM; in [2], 27.4 µM; in assay [3], 4.79 µM; in [4], 5.15 µM; in assay [5], 3.94 µM; in [6] it was 6.84 µM. In addition, the TGI was determined as 1.06 µM in assay [7], 8.18 µM in [8], 2.38 µM in assay [9] and 1.78 µM in assay [10].

On to `CCOC(=O)C12CCSC1C1(C#N)C(C#N)=CC2(N=P(c2ccccc2)(c2ccccc2)c2ccccc2)n2c(=O)n(-c3ccccc3)c(=O)n21` (stereo not drawn), for which the TGI in assay [1] was over 100 µM; in assay [2] it was over 100 µM; in assay [3] it was over 100 µM; in [4] it was over 100 µM; in [5], over 100 µM; in assay [6] it was 79.8 µM. Moreover, the TGI in assay [7] was 73.4 µM; in assay [8], over 100 µM; in [9], 77.9 µM; in assay [10], over 100 µM.

On to `O=C(N[C@@H]1C=CCC[C@@H]1c1ccccc1)OCc1ccccc1`, for which the TGI is 54.4 µM in [1]; over 100 µM in assay [2]; 33.9 µM in [3]; 37 µM in assay [4]; 34.6 µM in [5]; 42.4 µM in assay [6]. Besides, the TGI in assay [7] was found to be 57.2 µM; in assay [8], 64.7 µM; in assay [9], 28 µM; in assay [10], 28.9 µM.

As for `C=CC(=O)NCCOc1cccc(Nc2cc(NCCCNC(=O)C3CCC3)c(Br)cn2)c1`, the GI50 in assay [1] is 1.84 µM; in assay [2], 1.16 µM; in assay [3] it was 0.954 µM; in assay [4] it was 1.46 µM; in assay [5] it was 0.302 µM; in assay [6] it was 1.26 µM. Besides, the GI50 was 1.66 µM in assay [7], 0.75 µM in assay [8], 2.58 µM in assay [9] and 0.776 µM in assay [10]. Further, the TGI in assay [1] was 10.5 µM; in [2] it was over 25 µM; in [3] it was over 25 µM; in [4] it was 6.43 µM; in assay [5], 4.98 µM; in [6], 10.7 µM. In addition, the TGI in [7] was over 25 µM; in [8], over 25 µM; in [9] it was 6.87 µM; in assay [10], 5.4 µM.

Turning to `O=c1c2[nH]c3ccccc3c2nc2n1CCS2`, the GI50 in assay [1] was over 100 µM; in [2], over 100 µM; in assay [3], 67 µM; in [4] it was 69.9 µM; in assay [5], over 100 µM; in assay [6], over 100 µM. In addition, the GI50 in assay [7] is over 100 µM; in assay [8], 65.2 µM; in [9], 92.7 µM; in assay [10], 54.7 µM. Further, the TGI in assay [1], in [2], in assay [3], in [4], in assay [5] and in [6] was over 100 µM throughout. Besides, the TGI in assay [7], in assay [8], in assay [9] and in assay [10] was over 100 µM throughout.

Source of the values: PubChem BioAssay (NCI).
